Active and inactive are the calls of the source. The calls are words filed in the database; no cut-off is given here.
How the values were obtained:
Mus musculus [1] = experiment: Compound was evaluated for the neuro toxicity up to 4 hours after doses of <=300 mg/kg administered intraperitoneally; No toxicity; type: organism-based; details: in vivo, ip
Mus musculus [2] = experiment: Compound was evaluated for the dose required for protection against scMET-induced seizures after 4 hours of intraperitoneal administration at the doses< = 0.77-0.90 mM/kg; Inactive; type: functional, organism-based
Mus musculus [3] = experiment: Compound was evaluated for the dose required for protection against MES-induced seizures after 4 hours of intraperitoneal administration; type: functional

For `O=C1NC(=O)C(c2ccccc2)(c2ccc(C(F)(F)F)cc2)N1` (stereo not drawn), the Neurotoxicity (Mus musculus [1]) was “No toxicity”, the Activity (Mus musculus [2]) was “inactive” and the Activity (Mus musculus [3]) was 0.94 mmol/kg.

From ChEMBL document CHEMBL1121659 (J Med Chem, 1981)
